In patent US20250215039A1, “NUCLEOSIDES FOR TREATING CANCER” (PRIMEFOUR THERAPEUTICS, INC., priority 2022, published 2025):
Read-outs that look alike come from different tables or passages of the source.

Test system: cancer cell lines
Test: Cancer cell proliferation activity (CellTiterGlo, 72 h)
Type: cell-based
Conditions: 72 h, 72 h, read-out: IC50 cell proliferation
Summary of the method: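 Cells seeded overnight at 37 °C, then dosed with compound at 0.1% final DMSO and incubated 72 h at 37 °C (5% or 10% CO2 by medium).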

Compound: Nc1nc(=O)n([C@H]2C[C@H](O)[C@@H](CO)O2)cc1F [compound 169, 4-amino-5-fluoro-1-((2R,4S,5R)-4-hydroxy-5-(hydroxymethyl)tetrahydrofuran-2-yl)pyrimidin-2(1H)-one]
- IC50 (5637 (bladder)): 0.001 µM
- IC50 (CLS439 (bladder)): 0.023 µM
- IC50 (HS729 (muscle)): 0.015 µM
- IC50 (J82 (bladder)): 0.005 µM
- IC50 (JAR (placenta)): 0.018 µM
- IC50 (MT3 (breast)): 0.004 µM
- IC50 (PANCI (pancreas)): 0.028 µM
- IC50 (PC3 (prostate)): 0.014 µM
- IC50 (RD (muscle)): 0.01 µM
- IC50 (T24 (bladder)): 0.005 µM
- IC50 (Homo sapiens, 22Rv1, 72 h, 22RV1 (prostate)): 0.002 µM
- IC50 (Homo sapiens, 786-0, 72 h, 786O (kidney)): 0.017 µM
- IC50 (Homo sapiens, A204, 72 h, A204 (muscle)): 0.051 µM
- IC50 (Homo sapiens, A549, 72 h, A549 (lung)): 0.014 µM
- IC50 (Homo sapiens, A673, 72 h, A673 (bone)): 0.003 µM
- IC50 (Homo sapiens, A2780, 72 h, A2780 (ovary)): 0.008 µM
- IC50 (Homo sapiens, A-375, 72 h, A375 (skin)): 0.007 µM
- IC50 (Homo sapiens, A-431, 72 h, A431 (skin)): 0.0004 µM
- IC50 (Homo sapiens, ACHN, ACHN (kidney)): 0.003 µM
- IC50 (Homo sapiens, ASPC1, 72 h, ASPC1 (pancreas)): 0.008 µM
- IC50 (Homo sapiens, BT-20, 72 h, BT20 (breast)): > 50 µM
- IC50 (Homo sapiens, BXPC-3, 72 h, BXPC3 (pancreas)): 0.001 µM
- IC50 (Homo sapiens, C-33-A, C33A (endometrial)): 0.009 µM
- IC50 (Homo sapiens, CAKI-1, 72 h, CAKI1 (kidney)): 0.045 µM
- IC50 (Homo sapiens, COLO 205, 72 h, COLO205 (colon)): 0.001 µM
- IC50 (Homo sapiens, COLO-678, 72 h, COLO678 (colon)): > 50 µM
- IC50 (Homo sapiens, Ca-Ski, CASKI (endometrial)): 0.023 µM
- IC50 (Homo sapiens, Caco-2, 72 h, CACO2 (colon)): > 50 µM
- IC50 (Homo sapiens, Calu-6, 72 h, CALU6 (lung)): 0.029 µM
- IC50 (Homo sapiens, DLD-1, 72 h, DLD1 (colon)): 0.016 µM
- IC50 (Homo sapiens, DU-145, 72 h, DU145 (prostate)): 0.01 µM
- IC50 (Homo sapiens, EFO-21, 72 h, EFO21 (ovary)): 0.476 µM
- IC50 (Homo sapiens, EJ-28, 72 h, EJ28 (bladder)): 0.004 µM
- IC50 (Homo sapiens, Granta-519, 72 h, GRANTA-519 (hematological)): 0.009 µM
- IC50 (Homo sapiens, HCT-15, 72 h, HCT15 (colon)): 0.015 µM
- IC50 (Homo sapiens, HCT-116, 72 h, HCT116 (colon)): 0.023 µM
- IC50 (Homo sapiens, HEK293, 72 h, HEK293 (kidney)): 0.03 µM
- IC50 (Homo sapiens, HL-60, 72 h, HL-60 (hematological)): 0.008 µM
- IC50 (Homo sapiens, HT-29, 72 h, HT29 (colon)): 0.002 µM
- IC50 (Homo sapiens, HT-1080, 72 h, HT1080 (connective tissue)): 0.008 µM
- IC50 (Homo sapiens, HeLa, HELA (endometrial)): 1.53 µM
- IC50 (Homo sapiens, HepG2, 72 h, HEPG2 (liver)): 0.002 µM
- IC50 (Homo sapiens, Hs-578T, HS578T (breast)): > 50 µM
- IC50 (Homo sapiens, IGROV-1, 72 h, IGROV1 (ovary)): 0.022 µM
- IC50 (Homo sapiens, IMR-90, 72 h, IMR90 (lung)): > 50 µM
- IC50 (Homo sapiens, JEG-3, 72 h, JEG3 (placenta)): 0.002 µM
- IC50 (Homo sapiens, JIMT-1, 72 h, JIMT1 (breast)): 0.034 µM
- IC50 (Homo sapiens, K562, 72 h, K-562 (hematological)): 0.094 µM
- IC50 (Homo sapiens, Kasumi 1, 72 h, KASUMI-1 (hematological)): 0.016 µM
- IC50 (Homo sapiens, L-363, 72 h, L-363 (hematological)): 0.003 µM
- IC50 (Homo sapiens, LoVo, LOVO (colon)): 0.002 µM
- IC50 (Homo sapiens, MCF7, 72 h, MCF7 (breast)): 0.002 µM
- IC50 (Homo sapiens, MDA-MB-231, 72 h, MDAMB231 (breast)): 0.381 µM
- IC50 (Homo sapiens, MDA-MB-435, 72 h, MDAMB435 (skin)): 0.017 µM
- IC50 (Homo sapiens, MDA-MB-436, 72 h, MDAMB436 (breast)): 0.003 µM
- IC50 (Homo sapiens, MDA-MB-468, 72 h, MDAMB468 (breast)): 0.018 µM
- IC50 (Homo sapiens, MG-63, 72 h, MG63 (bone)): 0.01 µM
- IC50 (Homo sapiens, MHH-ES-1, 72 h, MHHES1 (bone)): 0.005 µM
- IC50 (Homo sapiens, MIA PaCa-2, 72 h, MIAPACA2 (pancreas)): 0.016 µM
- IC50 (Homo sapiens, MINO, MINO (hematological)): 0.001 µM
- IC50 (Homo sapiens, MV4-11, 72 h, MV4-11 (hematological)): 0.001 µM
- IC50 (Homo sapiens, NCI-H23, 72 h, NCI-H23 (lung)): 0.008 µM
- IC50 (Homo sapiens, NCI-H82, 72 h, NCIH82 (lung)): 0.006 µM
- IC50 (Homo sapiens, NCI-H292, 72 h, NCIH292 (lung)): 0.019 µM
- IC50 (Homo sapiens, NCI-H460, 72 h, NCIH460 (lung)): 0.002 µM
- IC50 (Homo sapiens, OVCAR-3, 72 h, OVCAR3 (ovary)): 0.015 µM
- IC50 (Homo sapiens, OVCAR-4, 72 h, OVCAR4 (ovary)): 0.538 µM
- IC50 (Homo sapiens, PLC-PRF-5, 72 h, PLCPRF5 (liver)): 0.019 µM
- IC50 (Homo sapiens, Panc1005, 72 h, PANC1005 (pancreas)): 0.553 µM
- IC50 (Homo sapiens, Ramos, RAMOS (hematological)): 0.018 µM
- IC50 (Homo sapiens, SAOS-2, 72 h, SAOS2 (bone)): 0.003 µM
- IC50 (Homo sapiens, SF-268, 72 h, SF268 (brain)): 0.007 µM
- IC50 (Homo sapiens, SF-295, 72 h, SF295 (brain)): 0.007 µM
- IC50 (Homo sapiens, SK-HEP1, 72 h, SKHEP1 (liver)): 0.016 µM
- IC50 (Homo sapiens, SK-LMS-1, 72 h, SKLMS1 (uterus)): 0.011 µM
- IC50 (Homo sapiens, SK-MEL-5, 72 h, SKMEL5 (skin; SKMELS [sic] in Table 9E)): 0.029 µM
- IC50 (Homo sapiens, SK-MEL-28, 72 h, SKMEL28 (skin)): 0.112 µM
- IC50 (Homo sapiens, SK-N-AS, SKNAS (brain)): > 50 µM
- IC50 (Homo sapiens, SK-N-SH, SKNSH (brain)): 0.151 µM
- IC50 (Homo sapiens, SK-OV-3, 72 h, SKOV3 (ovary)): 0.028 µM
- IC50 (Homo sapiens, SNB-75, 72 h, SNB75 (brain)): > 50 µM
- IC50 (Homo sapiens, SU-DHL10, 72 h, SU-DHL-10 (hematological)): 0.226 µM
- IC50 (Homo sapiens, SU-DHL-6, 72 h, SU-DHL-6 (hematological)): 0.007 µM
- IC50 (Homo sapiens, SW-620, 72 h, SW620 (colon)): 0.002 µM
- IC50 (Homo sapiens, TE-671, 72 h, TE671 (muscle)): 0.008 µM
- IC50 (Homo sapiens, THP-1, 72 h, THP-1 (hematological)): 0.002 µM
- IC50 (Homo sapiens, U2OS, U20S (bone; U2OS in Table 9E)): > 50 µM
- IC50 (Homo sapiens, U-87 MG, U87MG (brain)): > 50 µM
- IC50 (Homo sapiens, UMUC3, 72 h, UMUC3 (bladder)): 0.007 µM
- IC50 (Homo sapiens, UO-31, 72 h, UO31 (kidney)): 0.031 µM
- IC50 (Homo sapiens, WSU-NHL, WSU-NHL (hematological)): 0.001 µM
- IC50 (NCI-H358M, NCIH358M (lung)): 0.006 µM
- IC50 (PBMC, PBMC (hematological)): > 50 µM
- IC50 (RD-ES, RDES (bone)): 0.007 µM
